Calls of active or inactive are those of the source. The calls are words filed in the database; no cut-off is given here.

The results in this text go back to ChEMBL document CHEMBL1139771, “Anti-inflammatory property of the urinary metabolites of nobiletin in mouse” (Bioorg Med Chem Lett, 2007).

For data set [1], the system named is RAW264.7. The experiment in a line: Antiinflammatory activity in mouse RAW264.7 cells assessed as inhibition of LPS-induced nitric oxide production at 10 uM after 24 hrs. It is filed as functional, cell-based.
Data set [2] relates to RAW264.7. The experiment in a line: Antiinflammatory activity in mouse RAW264.7 cells assessed as inhibition of LPS-induced nitric oxide production at 30 uM after 24 hrs. It is filed as functional, cell-based.
For data set [3], the system named is RAW264.7. The experiment in a line: Cytotoxicity against mouse RAW264.7 cells at 30 uM by MTT assay. It is filed as cell-based. Conditions: raw264.7, 30 µM. On the technique in general: Formazan colour is commonly taken as a measure of viable cells.
The subject of data set [4] is RAW264.7. The data set is described as follows: Inhibition of LPS-induced iNOS protein expression in mouse RAW264.7 cells at 5 uM after 24 hrs by Western blotting. It is filed as functional, cell-based. (Immunoblotting shows a protein as a band on a membrane.)
Data set [5] relates to RAW264.7. The data set is described as follows: Inhibition of LPS-induced iNOS protein expression in mouse RAW264.7 cells at 20 uM after 24 hrs by Western blotting. It counts as functional, cell-based.
For data set [6], the system named is RAW264.7. The data set is described as follows: Inhibition of LPS-induced iNOS gene expression in mouse RAW264.7 cells at 20 uM after 24 hrs by RT-PCR. It is filed as functional, cell-based.
For data set [7], the system named is RAW264.7. The experiment in a line: Inhibition of LPS-induced COX2 protein expression in mouse RAW264.7 cells at 5 uM after 24 hrs by Western blotting. It counts as functional, cell-based.
Data set [8] concerns RAW264.7. The experiment in a line: Inhibition of LPS-induced COX2 protein expression in mouse RAW264.7 cells at 20 uM after 24 hrs by Western blotting. It is filed as functional, cell-based.
Data set [9] concerns RAW264.7. The data set is described as follows: Inhibition of LPS-induced COX2 gene expression in mouse RAW264.7 cells at 20 uM after 24 hrs by RT-PCR. It is filed as functional, cell-based.

As for `COc1ccc(-c2cc(=O)c3c(OC)c(OC)c(OC)c(OC)c3o2)cc1O`, the outcome with RAW264.7 [1] and with RAW264.7 [2] was Active. The Activity entry in the data set on RAW264.7 [3] is “Non-toxic”. The result with RAW264.7 [4], with RAW264.7 [5] and in the data set on RAW264.7 [6] was inactive.
Take `COc1ccc(-c2cc(=O)c3c(OC)c(OC)c(OC)c(OC)c3o2)cc1OC` [NOBILETIN]: the result in the data set with RAW264.7 [1] and in the data set on RAW264.7 [2] was inactive. The Activity result in the data set with RAW264.7 [3] was “Non-toxic”.
For `COc1c(OC)c(OC)c2c(=O)cc(-c3ccc(O)c(O)c3)oc2c1OC`, the result in the data set on RAW264.7 [1], in the data set on RAW264.7 [2], in the data set with RAW264.7 [4], with RAW264.7 [5], in the data set on RAW264.7 [7] and in the data set with RAW264.7 [8] was Active. Moreover, the outcome in the data set with RAW264.7 [6] and in the data set with RAW264.7 [9] was Active. Besides, the Activity result in the data set with RAW264.7 [3] is “Non-toxic”.
Regarding `COc1cc(-c2cc(=O)c3c(OC)c(OC)c(OC)c(OC)c3o2)ccc1O`, the result with RAW264.7 [1], in the data set on RAW264.7 [2], in the data set on RAW264.7 [4], in the data set with RAW264.7 [5], in the data set with RAW264.7 [7] and in the data set with RAW264.7 [8] was Active. Also, the result in the data set with RAW264.7 [6] and in the data set on RAW264.7 [9] was Active. Further, the Activity result in the data set on RAW264.7 [3] is recorded as “Non-toxic”.
